The term LC50 denotes the concentration lethal to half of the exposed cells or organisms. Read a low LC50 as a more lethal substance.

Experimental findings from ChEMBL document CHEMBL3351362, “In vitro antiparasitic activity of new thiosemicarbazones in strains of Trypanosoma cruzi” (Eur J Med Chem, 2014) are described below.

Converted amounts (≈) assume the structure as drawn.

Series [1] is described as follows: Induction of apoptosis in human monocytes assessed as late apoptotic cells using Annexin V/propidium iodide by flow cytometry (reference value: 0.27 %). It counts as cell-based. Particulars: monocyte. For orientation: Flow cytometry measures light scatter and fluorescence of single cells or particles in a stream.
Series [2] can be described thus: Induction of apoptosis in human platelets assessed as necrotic cells after 10 mins using Annexin V/propidium iodide by flow cytometry (reference value: 0.07 %). It counts as cell-based. Conditions: platelet.
The nature of series [3]: Induction of apoptosis in human monocytes assessed as necrotic cells using Annexin V/propidium iodide by flow cytometry (reference value: 0.02 %). Conditions: monocyte. It is filed as cell-based.
Series [4] is described as follows: Induction of apoptosis in human platelets assessed as viable cells after 10 mins using Annexin V/propidium iodide by flow cytometry (reference value: 89.61 %). It is filed as cell-based, Platelet. Conditions: read-out: Activity.
Series [5] deals with Trypanosoma cruzi. The series is described as follows: Trypanocidal activity against epimastigote forms of Trypanosoma cruzi Queretaro after 24 hrs. It is filed as functional.
A short description of series [6]: Induction of apoptosis in human monocytes assessed as early apoptotic cells using Annexin V/propidium iodide by flow cytometry (reference value: 2.18 %). Particulars: monocyte. It is filed as cell-based.
Series [7] can be described thus: Activation of human platelets assessed as CD62P expression at 3.9 ug/ml by flow cytometry relative to control. It counts as cell-based. Particulars: platelet.
Series [8] is described as follows: Induction of apoptosis in human monocytes assessed as viable cells using Annexin V/propidium iodide by flow cytometry (reference value: 97.53 %). It counts as cell-based, Monocyte. Particulars: read-out: Activity.
The nature of series [9]: Induction of apoptosis in human platelets assessed as early apoptotic cells after 10 mins using Annexin V/propidium iodide by flow cytometry (reference value: 10.30 %). It is filed as cell-based. Particulars: platelet.
The nature of series [10]: Induction of apoptosis in human platelets assessed as late apoptotic cells after 10 mins using Annexin V/propidium iodide by flow cytometry (reference value: 0.02 %). It is filed as cell-based. Particulars: platelet.
The test system of series [11] is Trypanosoma cruzi. Briefly: Trypanocidal activity against epimastigote forms of Trypanosoma cruzi Punta Lobos after 24 hrs. It is filed as functional.

In the case of `NC(=S)N/N=C/c1ccc(Sc2ccccc2C(F)(F)F)o1`, the Activity came out at 2.63% in series [1]; 0.05% in series [2]; 0.24% in series [3]; 26.47% in series [6]; 22.14% in [7]; 17.31% in series [9]. In addition, the Activity in series [10] is 0.06%. Further, in [4], the viability at 10 min turned out to be 82.6%. The LC50 was 14 µg/mL (≈ 40.5 µM) in the series on Trypanosoma cruzi [5] and 11.4 µg/mL (≈ 33 µM) in the series on Trypanosoma cruzi [11]. Further, the viability in series [8] is 70.7%.

On to `NC(=S)N/N=C/c1ccc(Sc2cccc(C(F)(F)F)c2)o1`, for which the Activity in series [1] was 7.87%; in series [2], 0.17%; in series [3] it was 2.57%; in [6], 22.9%; in series [7] it was 19.06%; in [9] it was 8.87%. The Activity in series [10] worked out at 0.05%. Moreover, the viability at 10 min in series [4] was determined as 90.9%. Also, the median lethal concentration (LC50) in the series with Trypanosoma cruzi [5] was found to be 7.8 µg/mL (≈ 22.6 µM); in the series on Trypanosoma cruzi [11], 17.8 µg/mL (≈ 51.5 µM). The viability in [8] was determined as 66.7%.

Take `NC(=S)N/N=C/c1ccc(Sc2ccc(C(F)(F)F)cc2)o1`: the Activity in series [1] was determined as 4.48%; in series [2] it was 0.16%; in series [3] it was 1.18%; in [6] it was 21.44%; in series [7], 18.56%; in series [9], 20.39%. The Activity in series [10] is 0.08%. Moreover, in [4], the viability at 10 min was 79.4%. The LC50 in the series with Trypanosoma cruzi [5] amounted to 29.5 µg/mL (≈ 85.4 µM); in the series with Trypanosoma cruzi [11], 8.3 µg/mL (≈ 24 µM). Also, the viability in series [8] worked out at 72.9%.

With `NC(=S)N/N=C/c1ccc(Sc2ccc(C(F)(F)F)cc2[N+](=O)[O-])o1`, the Activity in [1] is given as 2.81%; in series [2], 0.09%; in [3], 0.7%; in series [6], 17.05%; in [7], 23.63%; in series [9], 12.48%. In series [10], the Activity was found to be 0.24%. For the same compound, in series [4], the viability at 10 min stood at 87.2%. For the same compound, the LC50 is 3.4 µg/mL (≈ 8.71 µM) in the series with Trypanosoma cruzi [5] and 3.2 µg/mL (≈ 8.2 µM) in the series on Trypanosoma cruzi [11]. Also, the viability in series [8] was found to be 79.4%.

Consider `NC(=S)N/N=C/c1ccc(Sc2c(F)c(F)c(C(F)(F)F)c(F)c2F)o1`, for which the Activity was 4.76% in series [1]; 0.04% in series [2]; 0.62% in series [3]; 21.91% in [6]; 23.35% in [7]; 12.55% in [9]. The Activity in series [10] is recorded as 0.03%. The viability at 10 min in series [4] worked out at 87.4%. Moreover, the LC50 in the series on Trypanosoma cruzi [5] was 4.6 µg/mL (≈ 11 µM); in the series on Trypanosoma cruzi [11] it was 5.1 µg/mL (≈ 12.2 µM). For the same compound, in [8], the viability is 72.7%.

Consider `O=C(Cn1ccnc1[N+](=O)[O-])NCc1ccccc1` [BENZNIDAZOLE], for which the Activity in series [1] is on record as 4.78%; in [2], 0.12%; in series [3] it was 0.51%; in series [6], 18.79%; in [7], 42.51%; in series [9], 22.95%. The Activity in [10] turned out to be 0.02%. In series [4], the viability at 10 min is 76.9%. Also, the LC50 came out at 6.5 µg/mL (≈ 25 µM) with Trypanosoma cruzi [5] and 4 µg/mL (≈ 15.4 µM) in the series with Trypanosoma cruzi [11]. Further, the viability in series [8] is 75.9%.

Regarding `CN(C)c1ccc(C(=C2C=CC(=[N+](C)C)C=C2)c2ccc(N(C)C)cc2)cc1.[Cl-]` [GENTIAN VIOLET], the LC50 turned out to be 6.2 µg/mL in the series with Trypanosoma cruzi [5] and 15.8 µg/mL with Trypanosoma cruzi [11].
